Results published in the NIST ThermoML archive (doi:10.1016/j.jct.2015.12.031).

Tests used:
[1] = mn = molality of the nth substance listed, in mol/kg; conditions: 86.5 kPa, Liquid; for speed of sound: Frequency=3 MHz, Sing-around technique in a fixed-path interferometer; for mass density: Vibrating tube method
[2] = refractive index (Na D-line) (dimensionless); mn = molality of the nth substance listed, in mol/kg; conditions: 86.5 kPa, Liquid, Standard Abbe refractometry

CCCCCCn1cc[n+](C)c1.[Br-] [3-hexyl-1-methyl-1H-imidazolium bromide] + c1ccsc1
Conditions | mass density, [1] [kg/m3] | refractive index, [2] | speed of sound, [1] [m/s]
288.15 K, m2 = 0 | 1231.02 | 1.5282 | 1639.4
288.15 K, m2 = 0.0186 | 1230.37 | 1.5277 | 1638.2
288.15 K, m2 = 0.0221 | 1230.25 | 1.5276 | 1638
288.15 K, m2 = 0.0358 | 1229.81 | 1.5273 | 1637.2
288.15 K, m2 = 0.0433 | 1229.58 | 1.5271 | 1636.8
288.15 K, m2 = 0.0632 | 1228.97 | 1.5266 | 1635.7
288.15 K, m2 = 0.0727 | 1228.69 | 1.5264 | 1635.2
288.15 K, m2 = 0.0952 | 1228.1 | 1.5259 | 1634
288.15 K, m2 = 0.1142 | 1227.69 | 1.5255 | 1633
288.15 K, m2 = 0.137 | 1227.21 | 1.5251 | 1631.7
288.15 K, m2 = 0.1603 | 1226.74 | 1.5247 | 1630.7
288.15 K, m2 = 0.1869 | 1226.31 | 1.5242 | 1629.8
293.15 K, m2 = 0 | 1227.43 | 1.5268 | 1610.4
293.15 K, m2 = 0.0186 | 1226.77 | 1.5261 | 1609.5
293.15 K, m2 = 0.0221 | 1226.65 | 1.526 | 1609.3
293.15 K, m2 = 0.0358 | 1226.19 | 1.5257 | 1608.7
293.15 K, m2 = 0.0433 | 1225.96 | 1.5255 | 1608.4
293.15 K, m2 = 0.0632 | 1225.37 | 1.5251 | 1607.5
293.15 K, m2 = 0.0727 | 1225.11 | 1.5249 | 1607.1
293.15 K, m2 = 0.0952 | 1224.52 | 1.5244 | 1606.1
293.15 K, m2 = 0.1142 | 1224.09 | 1.524 | 1605.5
293.15 K, m2 = 0.137 | 1223.63 | 1.5234 | 1604.5
293.15 K, m2 = 0.1603 | 1223.19 | 1.5228 | 1603.7
293.15 K, m2 = 0.1869 | 1222.77 | 1.5223 | 1602.9
298.15 K, m2 = 0 | 1223.74 | 1.5254 | 1587.1
298.15 K, m2 = 0.0186 | 1223.07 | 1.5247 | 1586.3
298.15 K, m2 = 0.0221 | 1222.95 | 1.5246 | 1586.2
298.15 K, m2 = 0.0358 | 1222.49 | 1.5242 | 1585.7
298.15 K, m2 = 0.0433 | 1222.25 | 1.5239 | 1585.4
298.15 K, m2 = 0.0632 | 1221.65 | 1.5233 | 1584.6
298.15 K, m2 = 0.0727 | 1221.38 | 1.523 | 1584.3
298.15 K, m2 = 0.0952 | 1220.8 | 1.5224 | 1583.6
298.15 K, m2 = 0.1142 | 1220.33 | 1.5219 | 1582.9
298.15 K, m2 = 0.137 | 1219.88 | 1.5213 | 1582.2
298.15 K, m2 = 0.1603 | 1219.44 | 1.5208 | 1581.7
298.15 K, m2 = 0.1869 | 1219 | 1.5201 | 1581
303.15 K, m2 = 0 | 1220.35 | 1.5237 | 1568.7
303.15 K, m2 = 0.0186 | 1219.67 | 1.5227 | 1568.1
303.15 K, m2 = 0.0221 | 1219.55 | 1.5226 | 1568
303.15 K, m2 = 0.0358 | 1219.09 | 1.5223 | 1567.6
303.15 K, m2 = 0.0433 | 1218.84 | 1.5221 | 1567.4
303.15 K, m2 = 0.0632 | 1218.25 | 1.5217 | 1566.8
303.15 K, m2 = 0.0727 | 1217.98 | 1.5215 | 1566.6
303.15 K, m2 = 0.0952 | 1217.4 | 1.5211 | 1566
303.15 K, m2 = 0.1142 | 1216.96 | 1.5207 | 1565.5
303.15 K, m2 = 0.137 | 1216.51 | 1.5202 | 1564.9
303.15 K, m2 = 0.1603 | 1216.07 | 1.5197 | 1564.5
303.15 K, m2 = 0.1869 | 1215.66 | 1.5191 | 1564
